Measurements published in ChEMBL document CHEMBL1143417, “Roles of P-glycoprotein, Bcrp, and Mrp2 in biliary excretion of spiramycin in mice” (Antimicrob Agents Chemother, 2007).

Assays:
[1] = Drug excretion in C57BL/6 mouse assessed as drug recovery in bile at 1 uM administered through single-pass liver perfusion for 15 mins relative to total liver drug content at the end of infusion; type: ADME, tissue-based; details: in vivo, 0.25 h
[2] = Drug excretion in C57BL/6 mouse assessed as drug recovery in bile at 1 uM administered through single-pass liver perfusion for 15 mins coinfused with Pgp and Bcrp inhibitor GW918 relative to total liver drug content at the end of infusion; type: ADME, tissue-based; parameters: scale not given: the % may be the effect or the level left; details: in vivo, 0.25 h
[3] = Drug excretion in Mrp2 gene knockout C57BL/6 mouse assessed as drug recovery in bile at 1 uM administered through single-pass liver perfusion for 15 mins relative to total liver drug content at the end of infusion; type: ADME, tissue-based; details: in vivo, 0.25 h
[4] = Drug excretion in Mrp2 gene knockout C57BL/6 mouse assessed as drug recovery in bile at 1 uM administered through single-pass liver perfusion for 15 mins coinfused with Pgp and Bcrp inhibitor GW918 relative to total liver drug content at the end of infusion; type: ADME, tissue-based; parameters: scale not given: the % may be the effect or the level left; details: in vivo, 0.25 h
[5] = Drug excretion in Bcrp gene knockout C57BL/6 mouse assessed as drug recovery in bile at 1 uM administered through single-pass liver perfusion for 15 mins relative to total liver drug content at the end of infusion; type: ADME, tissue-based; details: in vivo, 0.25 h
[6] = Drug excretion in Bcrp gene knockout C57BL/6 mouse assessed as drug recovery in bile at 1 uM administered through single-pass liver perfusion for 15 mins coinfused with Pgp and Bcrp inhibitor GW918 relative to total liver drug content at the end of infusion; type: ADME, tissue-based; parameters: scale not given: the % may be the effect or the level left; details: in vivo, 0.25 h
[7] = tested on: Mus musculus; assay: Hepatic uptake clearance in C57BL/6 mouse at 1 uM administered through single-pass liver perfusion for 15 mins; type: ADME, organism-based; details: in vivo, 0.25 h
[8] = tested on: Mus musculus; assay: Hepatic uptake clearance in C57BL/6 mouse at 1 uM administered through single-pass liver perfusion for 15 mins coinfused with Pgp and Bcrp inhibitor GW918; type: ADME, organism-based; details: in vivo, 0.25 h
[9] = tested on: Mus musculus; assay: Hepatic uptake clearance in Mrp2 gene knockout C57BL/6 mouse at 1 uM administered through single-pass liver perfusion for 15 mins; type: ADME, organism-based; details: in vivo, 0.25 h
[10] = tested on: Mus musculus; assay: Hepatic uptake clearance in Mrp2 gene knockout C57BL/6 mouse at 1 uM administered through single-pass liver perfusion for 15 mins coinfused with Pgp and Bcrp inhibitor GW918; type: ADME, organism-based; details: in vivo, 0.25 h
[11] = tested on: Mus musculus; assay: Hepatic uptake clearance in Bcrp gene knockout C57BL/6 mouse at 1 uM administered through single-pass liver perfusion for 15 mins; type: ADME, organism-based; details: in vivo, 0.25 h
[12] = tested on: Mus musculus; assay: Hepatic uptake clearance in Bcrp gene knockout C57BL/6 mouse at 1 uM administered through single-pass liver perfusion for 15 mins coinfused with Pgp and Bcrp inhibitor GW918; type: ADME, organism-based; details: in vivo, 0.25 h
[13] = tested on: Mus musculus; assay: Drug excretion in C57BL/6 mouse assessed as drug recovery in outflow perfusate and bile at 1 uM administered through single-pass liver perfusion for 15 mins; type: ADME, organism-based; details: in vivo, other, 0.25 h
[14] = tested on: Mus musculus; assay: Drug excretion in Mrp2 gene knockout C57BL/6 mouse assessed as drug recovery in outflow perfusate and bile at 1 uM administered through single-pass liver perfusion for 15 mins; type: ADME, organism-based; details: in vivo, 0.25 h
[15] = tested on: Mus musculus; assay: Drug excretion in Bcrp gene knockout C57BL/6 mouse assessed as drug recovery in outflow perfusate and bile at 1 uM administered through single-pass liver perfusion for 15 mins; type: ADME, organism-based; details: in vivo, 0.25 h
[16] = Drug level in C57BL/6 mouse bile at 1 uM administered through single-pass liver perfusion for 15 mins; type: ADME, tissue-based; details: in vivo, 0.25 h
[17] = Drug level in Mrp2 gene knockout C57BL/6 mouse bile at 1 uM administered through single-pass liver perfusion for 15 mins; type: ADME, tissue-based; details: in vivo, 0.25 h
[18] = Drug level in Bcrp gene knockout C57BL/6 mouse bile at 1 uM administered through single-pass liver perfusion for 15 mins; type: ADME, tissue-based; details: in vivo, 0.25 h
[19] = Drug level in C57BL/6 mouse bile at 1 uM administered through single-pass liver perfusion for 15 mins coinfused with Pgp and Bcrp inhibitor GW918; type: ADME, tissue-based; details: in vivo, 0.25 h
[20] = Drug level in Mrp2 gene knockout C57BL/6 mouse bile at 1 uM administered through single-pass liver perfusion for 15 mins coinfused with Pgp and Bcrp inhibitor GW918; type: ADME, tissue-based; details: in vivo, 0.25 h
[21] = Drug level in Bcrp gene knockout C57BL/6 mouse bile at 1 uM administered through single-pass liver perfusion for 15 mins coinfused with Pgp and Bcrp inhibitor GW918; type: ADME, tissue-based; details: in vivo, 0.25 h
[22] = tested on: Mus musculus; assay: Drug excretion in C57BL/6 mouse assessed as drug recovery in outflow perfusate at 1 uM administered through single-pass liver perfusion for 15 mins relative to total liver drug content at the end of infusion; type: ADME, organism-based; details: in vivo, 0.25 h
[23] = tested on: Mus musculus; assay: Drug excretion in C57BL/6 mouse assessed as drug recovery in outflow perfusate at 1 uM administered through single-pass liver perfusion for 15 mins coinfused with Pgp and Bcrp inhibitor GW918 relative to total liver drug content at the end of infusion; type: ADME, organism-based; parameters: scale not given: the % may be the effect or the level left; details: in vivo, 0.25 h
[24] = tested on: Mus musculus; assay: Drug excretion in Mrp2 gene knockout C57BL/6 mouse assessed as drug recovery in outflow perfusate at 1 uM administered through single-pass liver perfusion for 15 mins relative to total liver drug content at the end of infusion; type: ADME, organism-based; details: in vivo, 0.25 h
[25] = tested on: Mus musculus; assay: Drug excretion in Mrp2 gene knockout C57BL/6 mouse assessed as drug recovery in outflow perfusate at 1 uM administered through single-pass liver perfusion for 15 mins coinfused with Pgp and Bcrp inhibitor GW918 relative to total liver drug content at the end of infusion; type: ADME, organism-based; parameters: scale not given: the % may be the effect or the level left; details: in vivo, 0.25 h
[26] = tested on: Mus musculus; assay: Drug excretion in Bcrp gene knockout C57BL/6 mouse assessed as drug recovery in outflow perfusate at 1 uM administered through single-pass liver perfusion for 15 mins relative to total liver drug content at the end of infusion; type: ADME, organism-based; details: in vivo, 0.25 h
[27] = tested on: Mus musculus; assay: Drug excretion in Bcrp gene knockout C57BL/6 mouse assessed as drug recovery in outflow perfusate at 1 uM administered through single-pass liver perfusion for 15 mins coinfused with Pgp and Bcrp inhibitor GW918 relative to total liver drug content at the end of infusion; type: ADME, organism-based; parameters: scale not given: the % may be the effect or the level left; details: in vivo, 0.25 h

Activity [1]: 9.15% | Activity [2]: 4.36% | Activity [3]: 1.21% | Activity [4]: 0.58% | Activity [5]: 14.1% | Activity [6]: 8.28% | CLup [7]: 4.63 mL/min | CLup [8]: 4.64 mL/min | CLup [9]: 5.15 mL/min | CLup [10]: 4.7 mL/min | CLup [11]: 4.55 mL/min | CLup [12]: 5.03 mL/min | Activity [13]: 90.5 %ID | Activity [14]: 82.4 %ID | Activity [15]: 86.5 %ID | Drug uptake [16]: 8.65 µg/mL | Drug uptake [17]: 3.45 µg/mL | Drug uptake [18]: 19.1 µg/mL | Drug uptake [19]: 7.82 µg/mL | Drug uptake [20]: 1.77 µg/mL | Drug uptake [21]: 14 µg/mL | Activity [22]: 32.5% | Activity [23]: 34.1% | Activity [24]: 29.5% | Activity [25]: 24% | Activity [26]: 28.1% | Activity [27]: 25.2%
Sequence: SPIRAMYCIN
